Reference: patent US8354419B2, “Benzimidazole analogues for the treatment or prevention of flavivirus infections” (Vertex Pharmaceuticals Incorporated, priority 2009, dated 2013)
Where two headings read alike, the source gives them in different places.

System: HCV (Ib) RNA replication
Experiment: Cell-based luciferase reporter HCV (1b) RNA replication assay (replicon cell lines Huh-7 5.2 and ET)
Design: species or system Hepatitis C virus
Conditions: HCV 1b genotype replicon, luciferase readout, 4 days incubation, read-out: EC50_1b
Method in brief: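 Huh-7-derived 5.2 or ET replicon cells carrying a firefly luciferase reporter were seeded at ~3000 cells/well in medium without G418 or phenol red. Compound was added after 3-4 h, followed by 4 days at 37 °C. Luciferase readout was used, with IC50 fitted by nonlinear regression from eleven concentrations in duplicate.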

SMILES | EC50 (Hepatitis C virus, Huh-7, 96 h) [nM] | EC50 [nM]
COC(=O)N[C@H](C(=O)N1CCC[C@H]1c1nc2cc(-c3ccc(-c4ccc5[nH]c([C@@H]6CCCN6C(=O)[C@@H](NC(=O)OC)C(C)C)nc5c4)c(C)c3C)ccc2[nH]1)C(C)C [Compound 13, ((S)-1-{(S)-2-[5-(4-{2-[(S)-1-((S)-2-Methoxycarbonylamino-3-methyl-butyryl)-pyrrolidin-2-yl]-1H-benzoimidazol-5-yl}-2,3-dimethyl-phenyl)-1H-benzoimidazol-2-yl]-pyrrolidine-1-carbonyl}-2-methyl-propyl)-carbamic acid methyl ester] | ≤ 5 | –
CC(C)(NC(=O)OCc1ccccc1)C(=O)N1CCC[C@H]1c1nc2cc(C#Cc3ccc4[nH]c([C@@H]5CCCN5C(=O)C(C)(C)NC(=O)OCc5ccccc5)nc4c3)ccc2[nH]1 [Compound 88] | 5 to 5000 | –
COC(=O)N[C@H](C(=O)N1CCC[C@H]1c1nc2cc(CCc3ccc4[nH]c([C@@H]5CCCN5C(=O)[C@H](NC(=O)OC)C(C)C)nc4c3)ccc2[nH]1)C(C)C [Compound 116] | ≤ 5 | –
COC(=O)N[C@H](C(=O)N1CCC[C@H]1c1nc2cc(-c3ccc(-c4ccc5nc([C@@H]6CCCN6C(=O)[C@@H](NC(=O)OC)[C@@H](C)OC)[nH]c5c4)c4c3OCO4)ccc2[nH]1)[C@@H](C)OC [Compound 185] | ≤ 5 | –
COC(=O)N[C@H](C(=O)N1CCC[C@H]1c1nc2cc(-c3cc(C)c(-c4ccc5[nH]c([C@@H]6CCCN6C(=O)[C@@H](NC(=O)OC)C(C)C)nc5c4)s3)ccc2[nH]1)C(C)C [Compound 155] | ≤ 5 | –
COC(=O)N[C@H](C(=O)N1CCC[C@H]1c1nc2cc(C)c(-c3ccc(-c4cc5[nH]c([C@@H]6CCCN6C(=O)[C@@H](NC(=O)OC)C(C)C)nc5cc4C)cc3)cc2[nH]1)C(C)C [Compound 144] | ≤ 5 | –
CC(=O)N[C@H](C(=O)N1CCC[C@H]1c1nc2cc(C#Cc3ccc4[nH]c([C@@H]5CCCN5C(=O)[C@H](NC(C)=O)C(C)C)nc4c3)ccc2[nH]1)C(C)C [Compound 97] | 5 to 5000 | –
COC(=O)N(C)[C@H](C(=O)N1CCC[C@H]1c1nc2cc(-c3ccc(-c4ccc5nc([C@@H]6CCCN6C(=O)[C@H](C(C)C)N(C)C(=O)OC)[nH]c5c4)c4c3OCO4)ccc2[nH]1)C(C)C [Compound 182] | ≤ 5 | –
COC(=O)N[C@H](C(=O)N1C[C@@H](C)C[C@H]1c1nc2cc(-c3cc4cc(-c5ccc6[nH]c([C@@H]7C[C@H](C)CN7C(=O)[C@@H](NC(=O)OC)C(C)C)nc6c5)sc4s3)ccc2[nH]1)C(C)C [Compound 332] | ≤ 5 | –
COC(=O)N[C@H](C(=O)N1CCC[C@H]1c1nc2cc(-c3ccc(-c4ccc5nc([C@@H]6CCCN6C(=O)[C@@H](NC(=O)OC)C(C)C)[nH]c5c4)c4ocnc34)ccc2[nH]1)C(C)C [Compound 173] | ≤ 5 | –
COC(=O)NC(C(=O)N1CCC[C@H]1c1nc2ccc(-c3cnc(-c4cnc(-c5ccc6nc([C@@H]7CCCN7C(=O)[C@@H](NC(=O)OC)C(C)C)[nH]c6c5)n4C)n3C)cc2[nH]1)C(C)C (some centres unmarked) [Compound 201] | ≤ 5 | –
COC(=O)N[C@H](C(=O)N1C[C@@H](C)C[C@H]1c1nc2cc(-c3ccc(-c4ccc5[nH]c([C@@H]6C[C@H](C)CN6C(=O)[C@H](C(C)C)N6CCOC6=O)nc5c4)cc3)ccc2[nH]1)C(C)C [Compound 305] | ≤ 5 | –
COC(=O)NC(C(=O)N1CCCC1c1nc2cc(-c3ccc(-c4ccc5[nH]c([C@@H]6CCCN6C(=O)C(NC(=O)OC)C(C)(C)F)nc5c4)cc3)ccc2[nH]1)C(C)(C)F (some centres unmarked) [Compound 179] | ≤ 5 | –
COC(=O)N(C)[C@H](C(=O)N1C[C@@H](C)C[C@H]1c1nc2ccc(-c3ccc(-c4ccc5nc([C@@H]6C[C@H](C)CN6C(=O)[C@H](C(C)C)N(C)C(=O)OC)n(C)c5c4)cc3)cc2n1C)C(C)C [Compound 295] | ≤ 5 | –
COC(=O)N[C@@H](C(=O)N1CC[C@H]1c1nc2cc(C#CC#Cc3ccc4[nH]c([C@@H]5CCN5C(=O)[C@H](NC(=O)OC)C(C)C)nc4c3)ccc2[nH]1)C(C)C [Compound 102] | ≤ 5 | –
COC(=O)N[C@H](C(=O)N1[C@@H](C)CC[C@H]1c1nc2ccc(-c3ccc(-c4ccc5nc([C@@H]6CC[C@H](C)N6C(=O)[C@@H](NC(=O)OC)C(C)C)[nH]c5c4)c(F)c3)cc2[nH]1)C(C)C [Compound 322] | ≤ 5 | –

SMILES | EC50 (Hepatitis C virus, Huh-7, 96 h) [nM] | EC50 [nM]
COC(=O)N[C@@H](C)C(=O)N1CCC[C@H]1c1nc2cc(C#Cc3ccc4[nH]c([C@@H]5CCCCN5C(=O)OCc5ccccc5)nc4c3)ccc2[nH]1 [Compound 52] | ≤ 5 | –
COC(=O)NC(C(=O)N1CCC[C@H]1c1nc2ccc(-c3ccc(-c4ccc5nc([C@@H]6CCCN6C(=O)[C@@H](NC(=O)OC)C(C)C)[nH]c5c4)cc3)cc2[nH]1)C(C)(C)C (some centres unmarked) [Compound 212] | – | ≤ 5
COC(=O)N[C@H](C(=O)N1[C@H](C)CC[C@H]1c1nc2cc(-c3ccc(-c4ccc5[nH]c([C@@H]6CC[C@H](C)N6C(=O)[C@@H](NC(=O)OC)C(C)C)nc5c4)cc3)ccc2[nH]1)C(C)C [Compound 313] | ≤ 5 | –
COC(=O)N[C@H](C(=O)N1C[C@@H](C)C[C@H]1c1nc2cc(-c3cc4sc(-c5ccc6[nH]c([C@@H]7C[C@H](C)CN7C(=O)[C@H](C(C)C)N(C)C(=O)OC)nc6c5)cc4s3)ccc2[nH]1)C(C)C [Compound 264] | ≤ 5 | –
O=C(C1CCCC1)N1CCCC[C@H]1c1nc2cc(C#CC#Cc3ccc4[nH]c([C@@H]5CCCCN5C(=O)C5CCCC5)nc4c3)ccc2[nH]1 [Compound 120] | > 5000 | –
COC(=O)N[C@H](C(=O)N1[C@@H]2C[C@@H]2C[C@H]1c1nc2cc(-c3ccc(-c4ccc5[nH]c([C@@H]6C[C@H]7C[C@H]7N6C(=O)[C@@H](NC(=O)OC)C(C)C)nc5c4)cc3)ccc2[nH]1)C(C)C [Compound 240] | ≤ 5 | –
COC(=O)NCCN1CCC[C@H]1c1nc2cc(C#Cc3ccc4[nH]c([C@@H]5CCCN5CCNC(=O)OC)nc4c3)ccc2[nH]1 [Compound 151] | 5 to 5000 | –
COC(=O)N[C@H](C(=O)N1CCC[C@H]1c1nc2cc(C#Cc3ccc4nc([C@@H]5CCCN5C(=O)[C@H](O)C(C)C)[nH]c4c3)ccc2[nH]1)C(C)C [Compound 78] | ≤ 5 | –
COC(=O)N[C@@H](C)C(=O)N1CCC[C@H]1c1nc2cc(C#Cc3ccc4[nH]c([C@@H]5CCCN5C(=O)[C@@H](NC(=O)OC)C(C)C)nc4c3)ccc2[nH]1 [Compound 53] | ≤ 5 | –
COC(=O)N(C)[C@H](C(=O)N1C[C@@H](C)C[C@H]1c1nc2cc(-c3cc4sc(-c5ccc6[nH]c([C@@H]7C[C@H](C)CN7C(=O)[C@H](C(C)C)N(C)C(=O)OC)nc6c5)cc4s3)ccc2[nH]1)C(C)C [Compound 260] | ≤ 5 | –
COC(=O)N[C@H](C(=O)N1C[C@@H](C)C[C@H]1c1nc2cc(-c3cc4sc(-c5ccc6[nH]c([C@@H]7C[C@H](C)CN7C(=O)[C@@H](NC(=O)OC)C(C)C)nc6c5)cc4s3)ccc2[nH]1)C(C)C [Compound 233] | ≤ 5 | –
COC(=O)N[C@H](C(=O)N1CCC[C@H]1c1nc2cc(-c3ccc(-c4ccc5[nH]c([C@@H]6CCCN6C(=O)[C@@H](NC(=O)OC)[C@@H](C)OC)nc5c4)c(C)c3)ccc2[nH]1)[C@@H](C)OC [Compound 207] | ≤ 5 | –
Cn1c([C@@H]2CCCN2)nc2cc(-c3ccc(-c4ccc5c(c4)nc([C@@H]4CCCN4)n5C)cc3)ccc21 [Compound 227] | > 5000 | –
COC(=O)N[C@H](C(=O)N1C[C@@H](C)C[C@H]1c1nc2cc(-c3ccc(-c4ccc5[nH]c([C@@H]6CC[C@H](C)N6C(=O)[C@@H](NC(=O)OC)C(C)C)nc5c4)cc3)ccc2[nH]1)C(C)C [Compound 320] | ≤ 5 | –
COC(=O)N[C@H](C(=O)N1C(C)CC[C@H]1c1nc2cc(-c3ccc(-c4ccc5[nH]c([C@@H]6CCC(C)N6C(=O)[C@@H](NC(=O)OC)C(C)C)nc5c4)c(C)c3)ccc2[nH]1)C(C)C (some centres unmarked) [Compound 300] | ≤ 5 | –
COC(=O)N[C@H](C(=O)N1CCC[C@H]1c1nc2cc(-c3ccc(-c4ccc5nc([C@@H]6CCCN6C(=O)CCCC[C@@H]6SC[C@@H]7NC(=O)N[C@@H]76)[nH]c5c4)cc3)ccc2[nH]1)C(C)C [Compound 216] | ≤ 5 | –
